The source of these data is ChEMBL document CHEMBL2331534, “Design, synthesis and biological evaluation of novel hybrid compounds of imidazole scaffold-based 2-benzylbenzofuran as potent anticancer agents” (Eur J Med Chem, 2013).

The term IC50 denotes the concentration at which inhibition is half-maximal.

Molecules are shown by their SMILES. Bounds are passed on as bounds.

The test system of test [1] is SMMC-7721. Briefly: Cytotoxicity against human SMMC7721 cells assessed as growth inhibition after 48 hrs by MTT assay. The test is classed as functional, cell-based. As to conditions: SMMC-7721, 48 h.
A further test concerns HL-60. The test can be described thus: Cytotoxicity against human HL60 cells assessed as growth inhibition after 48 hrs by MTT assay. The test is classed as functional, cell-based. To be noted: HL-60, 48 h. On the technique in general: Formazan colour is commonly taken as a measure of viable cells.
Test [2] concerns MCF7. Briefly: Ratio of compound IC50 to DDP IC50 for growth inhibition of human MCF7 cells. The test is classed as functional.
The next test concerns A549. The test can be described thus: Cytotoxicity against human A549 cells assessed as growth inhibition after 48 hrs by MTT assay. The test is classed as functional, cell-based. As to conditions: A549, 48 h.
For a further test, the system named is SW480. The test can be described thus: Cytotoxicity against human SW480 cells assessed as growth inhibition after 48 hrs by MTT assay. The test is classed as functional, cell-based. To be noted: SW480, 48 h.
Test [3] has as its system MCF7. The test can be described thus: Cytotoxicity against human MCF7 cells assessed as growth inhibition after 48 hrs by MTT assay. It is filed as functional, cell-based. To be noted: MCF7, 48 h.
Test [4] relates to SMMC-7721. The test can be described thus: Ratio of compound IC50 to DDP IC50 for growth inhibition of human SMMC7721 cells. It is filed as functional.

Regarding `COc1ccc(C(=O)C[n+]2cn(C(c3ccccc3)c3cc4ccccc4o3)c3ccccc32)cc1.[Br-]` (configuration not stated), the concentration for half-maximal inhibition (IC50) in the test with SMMC-7721 [1] was determined as 3.09 µM; in the test with HL-60 it was 1.02 µM; in the test on A549, 3.57 µM; in the test with SW480, 3.55 µM; in the test with MCF7 [3], 2.29 µM. Moreover, the “Ratio IC50” value in the test on MCF7 [2] came out at 4.6.

Consider `O=C(C[n+]1cn(C(c2ccccc2)c2cc3ccccc3o2)c2ccccc21)c1ccc2ccccc2c1.[Br-]` (configuration not stated), for which the half-inhibitory concentration (IC50) with SMMC-7721 [1] was determined as 2.35 µM; in the test with HL-60, 1.12 µM; in the test on A549, 3.43 µM; with SW480 it was 3.18 µM; in the test with MCF7 [3], 3.13 µM. Moreover, in the test with SMMC-7721 [4], the “Ratio IC50” value is 6.3.

Turning to `CS(=O)(=O)OC(c1ccccc1)c1cc2ccccc2o1` (configuration not stated), the 50% inhibitory concentration (IC50) in the test with SMMC-7721 [1], in the test on HL-60, in the test on A549, with SW480 and in the test on MCF7 [3] was above 40 µM throughout.

For `c1ccc(C(c2cc3ccccc3o2)n2ccnc2)cc1` (configuration not stated), the concentration for half-maximal inhibition (IC50) with SMMC-7721 [1], in the test with HL-60, in the test on A549, in the test on SW480 and in the test on MCF7 [3] was above 40 µM throughout.

For the molecule `Cc1nccn1C(c1ccccc1)c1cc2ccccc2o1` (configuration not stated), the IC50 in the test with SMMC-7721 [1], in the test with HL-60, in the test on A549, in the test with SW480 and in the test with MCF7 [3] was above 40 µM each time.

With `CCc1nccn1C(c1ccccc1)c1cc2ccccc2o1` (configuration not stated), the half-maximal inhibitory concentration (IC50) with SMMC-7721 [1], with HL-60, in the test on A549, in the test on SW480 and in the test on MCF7 [3] was above 40 µM throughout.
